pEC50: −log10 of the molar value.
Legend:
[1] = Antiviral activity against Influenza A virus (A/California/07/2009(H1N1)) infected in MDCK cells; assay type: functional, cell-based
[2] = Selectivity index, ratio of CC50 for Influenza A virus (A/California/07/2009(H1N1)) infected MDCK cells to EC50 for antiviral activity against Influenza A virus H1N1 (A/California/07/2009(H1N1)) infected in MDCK cells; assay type: toxicity, cell-based; conditions: dog; read-out: Ratio CC50/EC50
[3] = Antiviral activity against Influenza A virus (A/Viet Nam/1203/2004(H5N1)) infected in MDCK cells; assay type: functional, cell-based
[4] = Antiviral activity against Influenza A virus (A/Brisbane/10/2007(H3N2)) infected in MDCK cells; assay type: functional, cell-based
[5] = Cytotoxicity against Influenza A virus (A/Viet Nam/1203/2004(H5N1)) infected MDCK cells; assay type: cell-based, Canis lupus familiaris; conditions: dog
[6] = Cytotoxicity against Influenza A virus (A/California/07/2009(H1N1)) infected MDCK cells; assay type: cell-based, Canis lupus familiaris; conditions: dog
[7] = Cytotoxicity against Influenza B virus (B/Florida/4/2006) infected MDCK cells; assay type: cell-based, Canis lupus familiaris; conditions: dog
[8] = Cytotoxicity against Influenza A virus (A/Brisbane/10/2007(H3N2)) infected MDCK cells; assay type: cell-based, Canis lupus familiaris; conditions: dog
Influenza B virus = assay: Antiviral activity against Influenza B virus (B/Florida/4/2006) in MDCK cells; assay type: functional, cell-based; conditions: B/Florida/4/2006, MDCK
[9] = Selectivity index, ratio of CC50 for Influenza A virus (A/Brisbane/10/2007(H3N2)) infected MDCK cells to EC50 for antiviral activity against Influenza A virus (A/Brisbane/10/2007(H3N2)); assay type: toxicity, cell-based; conditions: dog; read-out: Ratio CC50/EC50
[10] = Selectivity index, ratio of CC50 for Influenza A virus (A/Viet Nam/1203/2004(H5N1)) infected MDCK cells to EC50 for antiviral activity against Influenza A virus (A/Viet Nam/1203/2004(H5N1)) infected in MDCK cells; assay type: toxicity, cell-based; conditions: dog; read-out: Ratio CC50/EC50

| SMILES | pEC50 [1] | selectivity ratio [2] | pEC50 [3] | pEC50 [4] | CC50 [5] | CC50 [6] | CC50 [7] | CC50 [8] | pEC50 (Influenza B virus) | selectivity ratio [9] | selectivity ratio [10] |
| --- | --- | --- | --- | --- | --- | --- | --- | --- | --- | --- | --- |
| COC(=O)[C@]1(C)CCC[C@]2(C)[C@H]3C[C@H]4C(C(C)C)=C[C@]3(CC[C@H]21)[C@@H]1/C(=N/O)CC[C@H](O)[C@@H]14 | 5.49 | 1.1 | < 5.92 | < 5.80 | 1.2 µM | 3.5 µM | 1.2 µM | 1.6 µM | < 5.92 | – | – |
| COC(=O)[C@]1(C)CCC[C@]2(C)[C@H]3C[C@H]4C(C(C)C)=C[C@]3(CC[C@H]21)[C@@H]1C(=O)CCC2(OCCO2)[C@@H]14 | 4.57 | 1.3 | < 4.62 | < 4.59 | 24 µM | 34 µM | 27 µM | 26 µM | < 4.57 | – | – |
| COC(=O)[C@]1(C)CCC[C@]2(C)[C@H]3C[C@@H]4[C@H]5[C@@H]6CCC(=O)[C@H]5[C@@]3(CC[C@H]21)CC4(C(C)C)O6 | < 4.00 | – | < 4.00 | < 4.00 | > 100 µM | > 100 µM | > 100 µM | > 100 µM | < 4.00 | – | – |
| COC(=O)[C@H]1[C@@H](C(=O)OC)[C@@]23C=C(C(C)C)[C@@H]1C[C@@H]2[C@@]1(C)CCC[C@@](C)(C(=O)OC)[C@@H]1CC3 | 5.42 | 2.5 | – | < 5.12 | – | 9.4 µM | – | 7.6 µM | – | – | – |
| CC(C)C1=C[C@@]23CC[C@@H]4[C@](C)(CCC[C@@]4(C)C(=O)O)[C@H]2C[C@@H]1[C@H]1C(=O)C=CC(=O)[C@H]13 | 4.49 | 1 | < 4.52 | < 4.57 | 30 µM | 33 µM | 20 µM | 27 µM | < 4.70 | – | – |
| COC(=O)[C@]1(C)CCC[C@]2(C)[C@H]3C[C@H]4C(C(C)C)=C[C@]3(CC[C@H]21)[C@@H]1C(=O)C=CC(=O)[C@@H]14 | < 5.26 | – | < 5.54 | 5.49 | 2.9 µM | 5.5 µM | 2.9 µM | 3.9 µM | < 5.54 | 1.2 | – |
| COC(=O)[C@]12C=CC(=O)[C@H]1[C@@]13C=C(C(C)C)[C@@H]2C[C@@H]1[C@@]1(C)CCC[C@@](C)(C(=O)OC)[C@@H]1CC3 | 5.51 | 1.2 | < 4.89 | 5.49 | 13 µM | 3.8 µM | 25 µM | 3.9 µM | < 4.60 | 1.2 | – |
| COC(=O)[C@]12CCC(=O)[C@H]1[C@@]13C=C(C(C)C)[C@@H]2C[C@@H]1[C@@]1(C)CCC[C@@](C)(C(=O)OC)[C@@H]1CC3 | 4.51 | 1.1 | 4.49 | 4.49 | 32 µM | 34 µM | 31 µM | 33 µM | < 4.51 | 1 | 1 |
| COC(=O)[C@]12CC[C@H](O)[C@H]1[C@@]13C=C(C(C)C)[C@@H]2C[C@@H]1[C@@]1(C)CCC[C@@](C)(C(=O)OC)[C@@H]1CC3 | 4.49 | 1.1 | 5.49 | < 4.62 | 3.2 µM | 35 µM | 3.1 µM | 24 µM | < 5.51 | – | 1 |
| COC(=O)[C@]1(C)CCC[C@]2(C)[C@H]3C[C@H]4C(C(C)C)=C[C@]3(CC[C@H]21)[C@@H]1C(=O)OC(=O)[C@@H]14 | 4.51 | 1.1 | 4.68 | 4.49 | 32 µM | 35 µM | 8.7 µM | 33 µM | < 5.06 | 1 | 1.5 |
| COC(=O)[C@]1(C)CCC[C@]2(C)[C@H]3C[C@H]4C(C(C)C)=C[C@]3(CC[C@H]21)[C@@H]1C(=O)CC[C@H](O)[C@@H]14 | < 4.00 | – | < 4.00 | < 4.00 | > 100 µM | > 100 µM | > 100 µM | > 100 µM | < 4.00 | – | – |
| COC(=O)[C@]1(C)CCC[C@]2(C)[C@H]3C[C@H]4C(C(C)C)=C[C@]3(CC[C@H]21)[C@H]1[C@@H]4[C@@H](O)CC[C@@H]1O | 4.32 | 1.9 | < 4.00 | < 4.19 | > 100 µM | 93 µM | > 100 µM | 64 µM | < 4.00 | – | – |
| CC(C)C1=C[C@@]23CC[C@H]4[C@](C)(CO)CCC[C@]4(C)[C@H]2C[C@@H]1[C@@H]1[C@H]3[C@@H](O)CC[C@@H]1O | < 4.96 | – | < 4.54 | 4.49 | 29 µM | 11 µM | 31 µM | 33 µM | < 4.51 | 1 | – |
| COC(=O)[C@]1(C)CCC[C@]2(C)[C@H]3C[C@H]4C(C(C)C)=C[C@]3(CC[C@H]21)[C@@H]1C(=O)CC[C@H](OC(C)=O)[C@@H]14 | < 4.00 | – | < 4.00 | < 4.00 | > 100 µM | > 100 µM | > 100 µM | > 100 µM | < 4.00 | – | – |
| COC(=O)[C@]1(C)CCC[C@]2(C)[C@H]3C[C@H]4C(C(C)C)=C[C@]3(CC[C@H]21)[C@@H]1C(=O)CC[C@H](OCCC#N)[C@@H]14 | < 4.00 | – | < 4.51 | 4.47 | 31 µM | > 100 µM | 52 µM | 68 µM | < 4.28 | 2 | – |
| COC(=O)[C@]1(C)CCC[C@]2(C)[C@H]3C[C@H]4C(C(C)C)=C[C@]3(CC[C@H]21)[C@@H]1C(=O)CC[C@H](OC(=O)CCC(=O)O)[C@@H]14 | < 4.00 | – | 4.06 | < 4.00 | > 100 µM | > 100 µM | > 100 µM | > 100 µM | < 4.00 | – | > 1.1 |
| COC(=O)[C@]1(C)CCC[C@]2(C)[C@H]3C[C@H]4C(C(C)C)=C[C@]3(CC[C@H]21)[C@H]1[C@@H]4[C@@H](OC(=O)c2cccnc2)CC[C@@H]1OC(=O)c1cccnc1 | 4.54 | 1.1 | < 5.07 | < 5.31 | 8.5 µM | 32 µM | 11 µM | 4.9 µM | < 4.96 | – | – |
| COC(=O)[C@]1(C)CCC[C@]2(C)[C@H]3C[C@H]4C(C(C)C)=C[C@]3(CC[C@H]21)[C@H]1[C@@H]4[C@@H](OC(=O)/C=C/c2ccccc2)CC[C@@H]1OC(=O)C=Cc1ccccc1 | < 4.77 | – | < 5.09 | < 5.40 | 8.2 µM | 17 µM | 9.3 µM | 4 µM | < 5.03 | – | – |
| CC(C)C1=C[C@@]23CC[C@H]4[C@](C)(COC(=O)/C=C/c5ccccc5)CCC[C@]4(C)[C@H]2C[C@@H]1[C@@H]1[C@H]3[C@@H](OC(=O)/C=C/c2ccccc2)CC[C@@H]1OC(=O)/C=C/c1ccccc1 | 4.51 | 1.1 | < 4.00 | 4.51 | > 100 µM | 35 µM | 46 µM | 33 µM | < 4.34 | 1.1 | – |
| COC(=O)[C@]1(C)CCC[C@]2(C)[C@H]3C[C@H]4C(C(C)C)=C[C@]3(CC[C@H]21)[C@@H]1/C(=N/O)CCC(=O)[C@@H]14 | 4.51 | 1 | < 5.77 | < 4.89 | 1.7 µM | 31 µM | 2.4 µM | 13 µM | < 5.62 | – | – |
| COC(=O)[C@]1(C)CCC[C@]2(C)[C@H]3C[C@@H]4[C@@H]5[C@H]6[C@H](OC(C)=O)CC[C@@H]5OC4(C(C)C)C[C@]63CC[C@H]21 | 5.49 | 1.1 | < 4.92 | < 5.30 | 12 µM | 3.5 µM | 10 µM | 5 µM | < 5.00 | – | – |
| COC(=O)[C@]1(C)CCC[C@]2(C)[C@H]3C[C@H]4C(C(C)C)=C[C@]3(CC[C@H]21)[C@@H]1/C(=N/OC(C)=O)CC[C@H](OC(C)=O)[C@@H]14 | < 5.32 | – | < 5.60 | 5.51 | 2.5 µM | 4.8 µM | 2.8 µM | 3.3 µM | < 5.55 | 1.1 | – |

Reference: ChEMBL document CHEMBL3616462, “Synthesis and antiviral activity of maleopimaric and quinopimaric acids' derivatives” (Bioorg Med Chem, 2015)
